For this test, the target named is T1, Farnesyl pyrophosphate synthase (Homo sapiens, UniProt P14324).
T1 sequence (P14324 whole entry): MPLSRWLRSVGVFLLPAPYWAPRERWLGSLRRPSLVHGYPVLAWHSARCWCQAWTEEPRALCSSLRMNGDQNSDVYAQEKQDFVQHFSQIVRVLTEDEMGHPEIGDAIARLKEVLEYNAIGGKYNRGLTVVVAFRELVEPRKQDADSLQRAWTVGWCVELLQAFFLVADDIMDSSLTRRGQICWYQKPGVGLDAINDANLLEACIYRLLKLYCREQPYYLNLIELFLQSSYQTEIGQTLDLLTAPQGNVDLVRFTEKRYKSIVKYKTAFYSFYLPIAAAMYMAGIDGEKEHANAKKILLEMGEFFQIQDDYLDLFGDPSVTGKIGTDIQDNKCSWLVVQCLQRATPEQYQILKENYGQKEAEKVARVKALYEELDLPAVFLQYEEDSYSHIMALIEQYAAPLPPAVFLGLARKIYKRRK
Put plainly: Biophysical assay. Conditions: pH 7.4; 23 °C. From the text: A biophysical assay using NMR spectroscopy to identify fragments with higher binding affinity to human recombinant FPPS.

`O=C(O)Cc1sc2ccccc2c1Cl` [2-(3-Chlorobenzo[b]thiophen-2-yl)acetic acid, 6]: inhibition was half-maximal at 12 µM (IC50).

Consider `CC(C(=O)O)c1cc2c(Cl)cccc2s1` (centres undefined) [2-(4-Chlorobenzo[b]thiophen-2-yl)propanoic acid, 5], for which the IC50 (usually the concentration needed to halve the response being measured) was determined as 80 µM.

`O=C(O)c1cc(Cn2c(C(=O)O)cc3ccc4ccccc4c32)on1` [5-((2-Carboxy-1H-benzo[g]indol-1-yl)methyl)isoxazole-3-carboxylic acid, 12] came in with an IC50 of 0.08 µM.

For `Cc1c(CC(=O)O)sc2ccc(Cl)cc12` [CID68686], the IC50 was greater than 500 µM.

The record behind these values is BindingDB's records for doi:10.1038/nchembio.421 (Novartis Institutes for BioMedical Research, 2010).
